Data taken from publication PMC8010095, “Discovery of novel antituberculosis agents among 3-phenyl-5-(1-phenyl-1H-[1,2,3]triazol-4-yl)-[1,2,4]oxadiazole derivatives targeting aminoacyl-tRNA synthetases” (Scientific Reports, 2021).
Like-named read-outs stand apart in the source and are kept apart here.

Columns and labels:
[1] = test system: Mycobacterium abscessus (ATCC 19,977); assay: microbe, parasite or virus in culture; type: cell-based; conditions: > 80% reduction in growth, screened at 20, 2 and 0.2 mg/L, 7H9 complete medium
M. tuberculosis H37Rv = assay: microbe, parasite or virus in culture; type: cell-based; conditions: > 80% reduction in growth, screened at 20, 2 and 0.2 mg/L, 7H9 complete medium
[2] = test system: Mycobacterium avium (ATCC 700,891 MAC 101); assay: microbe, parasite or virus in culture; type: cell-based; conditions: > 80% reduction in growth, screened at 20, 2 and 0.2 mg/L, 7H9 complete medium
[3] = biological target: T1, M. tuberculosis methionyl-tRNA synthetase (MetRS) (Mycobacterium tuberculosis, UniProt P9WFU5); assay: biochemical; type: biochemical
T1 construct: made in house; host or cells: Escherichia coli
T1 sequence (P9WFU5 whole entry): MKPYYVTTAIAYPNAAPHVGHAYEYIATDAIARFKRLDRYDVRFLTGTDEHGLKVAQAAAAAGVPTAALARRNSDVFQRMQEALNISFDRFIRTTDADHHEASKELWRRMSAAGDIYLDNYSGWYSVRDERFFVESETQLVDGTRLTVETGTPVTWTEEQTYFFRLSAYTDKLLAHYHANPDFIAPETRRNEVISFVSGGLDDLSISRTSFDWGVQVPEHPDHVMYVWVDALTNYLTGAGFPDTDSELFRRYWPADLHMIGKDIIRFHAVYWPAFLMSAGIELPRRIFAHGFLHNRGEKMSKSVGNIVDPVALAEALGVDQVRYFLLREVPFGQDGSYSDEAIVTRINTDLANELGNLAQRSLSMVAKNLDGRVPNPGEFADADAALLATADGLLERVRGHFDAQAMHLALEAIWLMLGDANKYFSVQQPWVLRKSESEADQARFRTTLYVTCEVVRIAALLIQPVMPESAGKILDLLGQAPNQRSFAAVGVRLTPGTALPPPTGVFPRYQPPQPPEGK

[4] = biological target: T2, M. tuberculosis leucyl-tRNA synthetase (LeuRS) (Mycobacterium tuberculosis, UniProt P9WFV1); assay: biochemical; type: biochemical
T2 construct: made in house; host or cells: Escherichia coli
T2 sequence (P9WFV1 whole entry): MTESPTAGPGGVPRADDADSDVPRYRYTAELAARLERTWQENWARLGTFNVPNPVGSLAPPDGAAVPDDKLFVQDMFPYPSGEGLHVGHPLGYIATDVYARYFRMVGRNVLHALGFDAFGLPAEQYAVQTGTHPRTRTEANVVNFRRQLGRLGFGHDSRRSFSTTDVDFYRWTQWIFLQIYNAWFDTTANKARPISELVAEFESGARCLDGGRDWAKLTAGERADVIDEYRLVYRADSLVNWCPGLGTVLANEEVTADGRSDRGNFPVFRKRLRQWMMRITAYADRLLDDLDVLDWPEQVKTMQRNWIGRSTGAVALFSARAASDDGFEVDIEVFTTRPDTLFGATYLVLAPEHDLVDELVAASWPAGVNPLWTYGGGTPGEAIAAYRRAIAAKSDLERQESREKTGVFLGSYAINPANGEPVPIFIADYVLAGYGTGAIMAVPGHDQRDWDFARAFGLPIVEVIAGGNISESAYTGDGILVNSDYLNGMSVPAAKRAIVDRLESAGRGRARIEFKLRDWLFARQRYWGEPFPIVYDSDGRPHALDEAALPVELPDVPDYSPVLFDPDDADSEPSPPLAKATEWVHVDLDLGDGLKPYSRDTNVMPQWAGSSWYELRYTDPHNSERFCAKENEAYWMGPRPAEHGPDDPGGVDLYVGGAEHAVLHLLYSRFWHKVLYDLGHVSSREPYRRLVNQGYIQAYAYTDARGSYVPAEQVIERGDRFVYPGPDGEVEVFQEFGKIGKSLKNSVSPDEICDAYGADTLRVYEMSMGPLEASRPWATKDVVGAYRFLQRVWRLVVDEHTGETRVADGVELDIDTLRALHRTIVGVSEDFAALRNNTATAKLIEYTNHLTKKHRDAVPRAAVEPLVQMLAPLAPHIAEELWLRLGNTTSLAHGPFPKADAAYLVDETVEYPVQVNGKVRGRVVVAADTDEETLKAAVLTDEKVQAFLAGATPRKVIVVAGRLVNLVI

[5] = recombinant enzyme, mean ± spread (n in brackets), negative = activation

Structure (SMILES)	Growth inhibition cutoff, M. abscessus 19,977 [1] [mg/L]	Growth inhibition cutoff, H37Rv (M. tuberculosis H37Rv) [mg/L]	Growth inhibition cutoff, M. avium 700,891 (MAC 101) [2] [mg/L]	MetRS inhibition activity, % [3, 5]	LeuRS inhibition activity, % [4, 5]	further results
Nc1c(-c2nc(-c3ccccc3)no2)nnn1-c1ccccc1F [Compound 1]	> 20	> 20	> 20			
CCOc1ccccc1-n1nnc(-c2nc(-c3ccc(F)cc3)no2)c1N [Compound 30]	> 20	> 20	> 20	19 ± 0.9 (2) %		
COc1ccc(-c2noc(-c3nnn(-c4ccc(Cl)cc4)c3C)n2)cc1OC [Compound 38]	> 20	> 20	> 20	25 ± 18 (2) %		
Cc1c(-c2nc(-c3ccccc3F)no2)nnn1-c1cc(F)ccc1F [Compound 6]	> 20	> 20	> 20			
CCOc1ccccc1-n1nnc(-c2nc(-c3ccc(Br)cc3)no2)c1N [Compound 36]	> 20	> 20	> 20	25 ± 5 (2) %		
Nc1c(-c2nc(-c3ccc(F)cc3)no2)nnn1-c1ccc(F)cc1F [Compound 22]	> 20	> 20	> 20	59 ± 9 (2) %		
Nc1c(-c2nc(-c3ccc(F)cc3)no2)nnn1-c1cccc(F)c1 [Compound 15]	> 20	> 20	> 20			
COc1ccc(OC)c(-n2nnc(-c3nc(-c4ccc(F)cc4)no3)c2N)c1 [Compound 29]	> 20	> 20	> 20	14 ± 14 (2) %		
Nc1c(-c2nc(-c3ccccc3)no2)nnn1-c1ccc(C(F)(F)F)c(Cl)c1 [Compound 2]						MIC ([1]; Mycobacteroides abscessus, ATCC19, read-out: Growth inhibition cutoff, M. abscessus 19,977): > 20 µg/mL; MIC (M. tuberculosis H37Rv; Mycobacterium tuberculosis, H37RV, read-out: Growth inhibition cutoff, H37Rv): > 20 µg/mL; MetRS inhibition activity, % [3]: 71 ± 29 (2) %; IC50 ([3]; mean ± s.d. (n = 3)): 115 ± 3 µM; LeuRS inhibition activity, % [4]: 32 ± 19 (3) %; IC50 ([4]; mean ± s.d. (n = 3)): 76.5 ± 66 µM; MIC ([2]; Mycobacterium avium, ATCC700, read-out: Growth inhibition cutoff, M. avium 700,891 (MAC 101)): > 20 µg/mL
COc1ccc(-c2noc(-c3nnn(-c4cc(Cl)ccc4OC)c3N)n2)cc1 [Compound 37]	> 20	> 20	> 20			
COc1ccc(C)cc1-n1nnc(-c2nc(-c3ccc(F)cc3)no2)c1N [Compound 28]	> 20	> 20	> 20	37 ± 3 (2) %		
Cc1c(-c2nc(-c3ccccc3F)no2)nnn1-c1ccc(F)c(Cl)c1 [Compound 4]	> 20	> 20	> 20		11 ± 8 (3) %	
Cc1c(-c2nc(-c3ccccc3Cl)no2)nnn1-c1cccc(F)c1 [Compound 7]	> 20	> 20	> 20		71 ± 5 (2) %	
Cc1c(-c2nc(-c3ccccc3F)no2)nnn1-c1ccc(Br)cc1 [Compound 5]	> 20	> 20	> 20		17 ± 10 (2) %	
COc1ccccc1-n1nnc(-c2nc(-c3ccc(F)cc3)no2)c1N [Compound 26]	> 20	> 20	> 20			
COc1cccc(-n2nnc(-c3nc(-c4ccc(F)cc4)no3)c2N)c1 [Compound 20]	> 20	> 20	> 20	37 ± 17 (3) %	29 ± 25 (2) %	
Nc1c(-c2nc(-c3ccc(F)cc3)no2)nnn1-c1ccc(F)cc1 [Compound 12]	> 20	> 20	> 20	52 ± 6 (2) %	3 ± 7 (2) %	

Structure (SMILES)	Growth inhibition cutoff, M. abscessus 19,977 [1] [mg/L]	Growth inhibition cutoff, H37Rv (M. tuberculosis H37Rv) [mg/L]	Growth inhibition cutoff, M. avium 700,891 (MAC 101) [2] [mg/L]	MetRS inhibition activity, % [3, 5]	LeuRS inhibition activity, % [4, 5]	further results
Nc1c(-c2nc(-c3ccc(F)cc3)no2)nnn1-c1ccccc1F [Compound 23]	> 20	> 20	> 20	7 ± 13 (2) %	5 ± 7 (2) %	
Nc1c(-c2nc(-c3ccc(F)cc3)no2)nnn1-c1ccc(Cl)cc1 [Compound 10]	> 20	> 20	> 20	23 ± 25 (3) %		
CCc1ccc(-n2nnc(-c3nc(-c4ccc(F)cc4)no3)c2N)cc1 [Compound 14]	> 20	> 20	> 20	41 ± 10 (3) %	31 ± 7 (2) %	
Nc1c(-c2nc(-c3ccc(Cl)cc3)no2)nnn1-c1ccc(Br)cc1F [Compound 31]	> 20	> 20	> 20	70 ± 19 (2) %	15 ± 11 (2) %	
CCOc1ccc(-c2noc(-c3nnn(-c4ccc(F)c(Cl)c4)c3N)n2)cc1 [Compound 41]	> 20	> 20	> 20	59 ± 22 (2) %		
Nc1c(-c2nc(-c3ccc(Br)cc3)no2)nnn1-c1ccc(F)cc1 [Compound 32]	> 20	> 20	> 20	46 ± 32 (2) %		
CCOc1ccc(-c2noc(-c3nnn(-c4ccccc4Cl)c3N)n2)cc1 [Compound 40]	> 20	> 20	> 20	22 ± 14 (2) %	36 ± 16 (3) %	
Nc1c(-c2nc(-c3ccc(Br)cc3)no2)nnn1-c1cccc(F)c1 [Compound 33]	> 20	> 20	> 20	55 ± 4 (2) %		
CCOc1ccc(-c2noc(-c3nnn(-c4ccccc4F)c3N)n2)cc1 [Compound 39]	> 20	> 20	> 20	35 ± 6 (2) %		
Nc1c(-c2nc(-c3ccc(F)cc3)no2)nnn1-c1cccc(C(F)(F)F)c1 [Compound 19]	> 20	> 20	> 20	53 ± 0.7 (2) %		
Cc1ccccc1-c1noc(-c2nnn(-c3ccc(Br)cc3)c2C)n1 [Compound 8]	> 20	> 20	> 20		18 ± 4 (2) %	
COc1ccccc1-n1nnc(-c2nc(-c3ccc(Br)cc3)no2)c1N [Compound 35]	> 20	> 20	> 20	61 ± 47 (3) %		
Nc1c(-c2nc(-c3ccc(F)cc3)no2)nnn1-c1ccc(Br)cc1 [Compound 11]	> 20	> 20	> 20			
COc1ccc(-n2nnc(-c3nc(-c4ccc(F)cc4)no3)c2N)cc1OC [Compound 21]	> 20	> 20	> 20			
Nc1c(-c2nc(-c3ccc(F)cc3)no2)nnn1-c1cccc(Cl)c1 [Compound 16]	> 20	> 20	> 20	47 ± 19 (2) %		
Nc1c(-c2nc(-c3ccc(F)cc3)no2)nnn1-c1ccccc1 [Compound 9]	> 20	> 20	> 20	30 ± 2 (2) %	1 ± 8 (2) %	
